Source: patent US6239146A, “Neurotrophic difluoroamide agents” (Bristol-Myers Squibb Company, priority 2000, dated 2001)
pKi: −log10 of the molar value.

Target: FKBP12 (Homo sapiens, UniProt P62942)
Test: FKBP12 Rotamase Inhibition Assay
Assay type: biochemical
Conditions: for pKi: 4° C., chymotrypsin-coupled, succinyl-Ala-Leu-Pro-Phe-p-nitroanilide substrate, read-out: Ki (apparent Ki for inhibition of rotamase activity); for inhibition at 10 µM: read-out: Percent Inhibition at 10 μM (rotamase)

Sequence of FKBP12 (P62942 whole entry, species assumed): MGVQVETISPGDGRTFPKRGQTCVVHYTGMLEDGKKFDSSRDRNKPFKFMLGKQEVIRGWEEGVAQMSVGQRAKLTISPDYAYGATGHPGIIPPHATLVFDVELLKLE

SMILES | pKi | inhibition at 10 µM
COc1cc(C(F)(F)C(=O)N2CCC[C@H]2C(=O)OCCCc2ccccc2)cc(OC)c1OC [Example 1] | 5.89 | 97%
COc1cc(C(F)(F)C(=O)N2CCC[C@H]2C(=O)OCCCc2cccnc2)cc(OC)c1OC [Example 2] | 6.06 | 
COc1cc(C(F)(F)C(=O)N2CCC[C@H]2C(=O)OC(CCCc2ccccc2)CCCc2cccnc2)cc(OC)c1OC (stereo partly shown) [Example 3] | 6.98 | 97%
COc1cc(C(F)(F)C(=O)N2CCCC[C@H]2C(=O)OC(CCCc2ccccc2)CCCc2cccnc2)cc(OC)c1OC (stereo partly shown) [Example 4] |  | 98%
COc1cc(C(F)(F)C(=O)N2CCC[C@H]2C(=O)OC(C)(C)CCc2ccccc2)cc(OC)c1OC [Example 5] |  | 70%
COc1cc(C(F)(F)C(=O)N2CCC[C@H]2C(=O)OC(CCc2ccccc2)c2ccccc2)cc(OC)c1OC (stereo partly shown) [Example 6] | 7.08 | 100%
COc1cc(C(F)(F)C(=O)N2CCCC[C@H]2C(=O)OC(CCc2ccccc2)c2ccccc2)cc(OC)c1OC (stereo partly shown) [Example 7] |  | 94%
COc1cc(CCCOC(=O)[C@@H]2CCCN2C(=O)C(F)(F)c2cc(OC)c(OC)c(OC)c2)cc(OC)c1OC [Example 8] |  | 38%
COc1cc(CCCOC(=O)[C@@H]2CCCCN2C(=O)C(F)(F)c2cc(OC)c(OC)c(OC)c2)cc(OC)c1OC [Example 9] | 6.96 | 99%
